Converted amounts (≈) assume the structure as drawn.
Legend:
[1] = DPPH radical scavenging (antioxidant) assay; assay type: biochemical; details: for IC50: DPPH, reference standards and yerba mate extracts by solvent (Table 10)
Procedure: The free radical scavenging activity of all the extracts was evaluated by 1,1-diphenyl-2-picryl-hydrazyl (DPPH) according to a previously reported method (Shen et al., 2010).
Thirty mg of dried extract of each sample was diluted in 10 ml of methanol, obtaining a concentration of 3 mg/mL as stock solution. From this stock solution were obtained the concentrations of 1.5, 0.75; 0.375; 0.1875; 0.09375; 0.046875; 0.0234275; and 0.01171825 mg/mL. Ascorbic acid, rutin, chlorogenic acid as pure reference standards were used as a positive control and dissolved in methanol to make the stock solution with the same concentration of extract solution.
DPPH (7.89 mg) was weighed on a chemical balance with a minimum weighing limit of 10 μg or smaller. Thereafter, it was dissolved in HPLC grade methanol to obtain a constant volume by filling 100 ml of a measuring flask (0.2 mM DPPH). Then further dilute this solution to 0.1 mM. The absorbance of a DPPH solution is empirically known to decrease with time until approximately 1 hr after preparation. Therefore, it was kept in dark for 2 hr until the absorbance stabilized.
The DPPH solution was stored in the dark at room temperature during the assay, and used up on the day of the preparation. 0.3 mL of each sample concentration and positive control was added to 2.7 mL of 0.1 mM DPPH solution. Reaction occurred inside tubes covered with aluminum paper, in a dark environment at 25° C. The mixtures were shaken vigorously and allowed to stand at room temperature for 30 minutes. Then the absorbance was measured at 517 nm using a microplate reader (Varioskan LUX, ThermoFisher). Control sample was prepared containing the same volume without any extract and reference ascorbic acid; methanol was used as blank and % scavenging of the DPPH free radical was measured using the following equation:
DPPH scavenging effect (% inhibition)={(Ac−As)/Ac)*100}
Where, Ac=absorbance of DPPH alone, As=absorbance of DPPH along with different concentrations of extracts.
The measurements were done at eight points of concentration. The measurement for and analytical sample solution at each concentration was repeated three times.
The IC50 of each analytical sample was calculated according to the following procedure: Inhibition ratio were plotted against the sample concentrations at all six points and the respective regression line (y=ax+b) was drawn. The regression line was not required to pass through the origin. In this step, we verified that all of the measurement points were on the regression line. […] When Y in the regression equation was substituted with 50, X (sample concentration) was calculated.
This value was obtained from the results of calculations using linear regression analysis. […]

[2] = adults; cited from earlier work
[3] = in choline chloride and glycerol; cited from earlier work

| Structure (SMILES) | IC50 [1] | other results |
| --- | --- | --- |
| O=C(/C=C/c1ccc(O)c(O)c1)O[C@@H]1CC(O)(C(=O)O)C[C@@H](OC(=O)/C=C/c2ccc(O)c(O)c2)C1O (stereo partly drawn) [3,5-diCQA, 3,5-dicaffeoylquinic acid] | 185.68 µg/mL (≈ 360 µM) | – |
| Cn1c(=O)c2c(ncn2C)n(C)c1=O [caffeine, 1,3,7-trimethylxanthine] | – | contribution to the extract's antioxidant property ([1]; correlation of DPPH IC50 with total CQAs, with or without caffeine): no contribution |
| C[N+](C)(C)CCO [choline] | – | daily upper limit, highest level of intake unlikely to cause harm [2]: 3,500 mg/day |
| Cn1cnc2c1c(=O)[nH]c(=O)n2C [theobromine, 3,7-dimethylxanthine] | – | solubility relative to water [3]: ~32 times |

Further lines, with some results ahead:

| IC50 [1] | Structure (SMILES) | other results |
| --- | --- | --- |
| 199.68 µg/mL (≈ 387 µM) | O=C(/C=C/c1ccc(O)c(O)c1)O[C@H]1[C@H](O)C[C@](O)(C(=O)O)C[C@H]1OC(=O)/C=C/c1ccc(O)c(O)c1 [4,5-diCQA, 4,5-dicaffeoylquinic acid] | – |
| 446.70 µg/mL (≈ 2540 µM) | O=C1O[C@H]([C@@H](O)CO)C(O)=C1O [ascorbic acid] | – |

From patent US20230302073A1, “BOTANICAL EXTRACTION” (Performance Labs Pte. Ltd., priority 2022, published 2023)
